Publication PMC3401275 (International Journal of Pharmaceutics, 2012)

How the values were obtained:
Caco-2 cells [1] = test: Cytotoxicity assay; format: cell-based, human; conditions: 100µM, 48 h
[2] = cited from earlier work
SMVT [3] = target: T1, SMVT (Canis lupus familiaris, UniProt A0A8I3MY61); conditions: read-out: IC50 for inhibition of [3H] biotin uptake; MDCK-MDR1 cells, 0.1–100µM, 30 min
T1 sequence (A0A8I3MY61 1-636): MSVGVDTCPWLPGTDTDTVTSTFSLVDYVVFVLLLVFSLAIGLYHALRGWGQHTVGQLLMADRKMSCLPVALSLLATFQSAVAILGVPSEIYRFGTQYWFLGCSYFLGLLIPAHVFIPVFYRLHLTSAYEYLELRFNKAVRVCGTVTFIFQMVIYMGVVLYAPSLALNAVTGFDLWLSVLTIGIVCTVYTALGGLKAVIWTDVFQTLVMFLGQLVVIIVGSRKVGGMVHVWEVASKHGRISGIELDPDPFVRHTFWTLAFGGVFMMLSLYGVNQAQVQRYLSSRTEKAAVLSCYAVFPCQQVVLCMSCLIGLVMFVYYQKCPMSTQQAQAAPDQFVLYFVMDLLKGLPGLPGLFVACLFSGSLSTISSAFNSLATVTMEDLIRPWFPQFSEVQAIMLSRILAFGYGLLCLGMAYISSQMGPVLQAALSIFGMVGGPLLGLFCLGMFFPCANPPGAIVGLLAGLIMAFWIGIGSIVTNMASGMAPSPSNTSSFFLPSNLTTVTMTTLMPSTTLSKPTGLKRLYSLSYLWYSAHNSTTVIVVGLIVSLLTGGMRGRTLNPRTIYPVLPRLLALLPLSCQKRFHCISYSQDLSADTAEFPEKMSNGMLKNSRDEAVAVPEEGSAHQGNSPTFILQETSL

SMVT [4] = target: T1, SMVT; format: cell-based, canine; conditions: MDCK-MDR1 cells, excess biotin, Fig. 4
Caco-2 cells [5] = test: Cellular accumulation on Caco-2 cell monolayers; conditions: 30 min incubation, Fig. 3
SMVT [6] = target: T1, SMVT; conditions: read-out: apparent affinity constant (Km) towards SMVT; MDCK-MDR1 cells, [3H] biotin uptake, 0.1–100µM, 30 min, Michaelis-Menten fit
MDCK-MDR1 cells = test: Cellular accumulation on MDCK-MDR1 cell monolayers; conditions: 30 min incubation, Fig. 2
SMVT [7] = target: T1, SMVT; conditions: MDCK-MDR1 monolayers, 0.5µCi/ml, no inhibitor

For `Nc1nc2c(ncn2COCCO)c(=O)[nH]1` [ACV, 2-amino-9-((2-hydroxyethoxy)methyl)-1H-purin-6(9H)-one], the cytotoxic effect (Caco-2 cells [1]) is listed as “Neither ACV nor its targeted lipid prodrugs demonstrate any cytotoxic effect” and the oral bioavailability ([2]; in vivo, po) is listed as 15–30%.

For `CCCCCCC(CCCCCCCCCCC(=O)OCCOCn1cnc2c(=O)[nH]c(N)nc21)OC(=O)CCCC[C@@H]1SC[C@@H]2NC(=O)N[C@@H]21` (stereo partly shown) [B-12HS-ACV, biotin-12hydroxystearicacid-acyclovir], the IC50 (SMVT [3]) was 8.17 ± 0.09 µM, the “uptake of prodrug in the presence of unlabeled biotin” value (“uptake of prodrug” for short) (SMVT [4]) was “significantly lower” and the “increase in the uptake compared to ACV” value (Caco-2 cells [5]) was 8.3 times. For the same molecule, the Km (SMVT [6]) was 24 ± 3.2 µM.

With `Nc1nc2c(ncn2COCCOC(=O)CCCC[C@@H]2SC[C@@H]3NC(=O)N[C@@H]32)c(=O)[nH]1` [B-ACV, Biotin-ACV] the IC50 (SMVT [3]) was 14.84 ± 0.1 µM, the “uptake of prodrug” value (SMVT [4]) was “significantly lower” and the “increase in the uptake compared to ACV” value (Caco-2 cells [5]) was 3.5 times. The Km (SMVT [6]) was 30.9 ± 4.19 µM and the “increase in the uptake compared to parent drug, ACV” value (MDCK-MDR1 cells) was 6 times.

For `CC(C)[C@H](N)C(=O)OCCOCn1cnc2c(=O)[nH]c(N)nc21` [VACV, Valacyclovir], the “increase of the oral bioavailability of ACV” value ([2]; ref Balimane et al., 1998, de Vrueh et al., Guo et al., 1999, Jacobson, 1993, Perry and Faulds, 1996, Soul-Lawton et al., 1995, Talluri et al., 2008) is given as 3 to 5 fold.

With [^3H] Biotin the “Permeability of [3H] biotin alone” value (SMVT [7]) was 4.74 ×10⁻⁶ cm/s.

For “biotin-ricinoleicacid-acyclovir [B-R-ACV]”, the IC50 (SMVT [3]) was 8.04 ± 0.07 µM, the “uptake of prodrug” value (SMVT [4]) was “significantly lower” and the Km (SMVT [6]) was 20.2 ± 1.74 µM.
